Source: patent US20040220259A1, “Topical treatment of dermatological disorders associated with reactive or dilated blood vessels” (priority 2003, published 2004)
Where two headings read alike, the source gives them in different places.

Assays:
[1] = pH over time of 0.1 M aqueous solutions of polyhydroxy-lactones (reaction with water to free acid); assay type: physicochemical; settings: for pH in aqueous solution: 0.1 M; for pH: 0.1 M (1.78%) aqueous solution
From the text: In general, because the formulation is to be applied to the skin, it is preferred to have a pH of about three to eight, to minimize irritation, and/or may be in a controlled release formulation, as discussed below. In some cases, an adjustment of the pH of the composition may be desirable because of the tendency of some polyhydroxy-lactones to react with water molecules and form free acid molecules, thereby altering the pH of the overall composition over time until the equilibrium of the reaction has been reached. This lowered pH may cause discomfort to the patient, as the compositions may irritate or sting the skin area when applied. The reaction with water is evidenced by a continued decrease in pH of the solution. As is know in the art, a freshly prepared gluconolactone 1% aqueous solution has pH 3.6. The pH changes to 2.5 after 2 hours. See, The Merck Index, 13th Edition, #4470. […]

[2] = 1% aqueous solution, cited from earlier work

Compound | pH in aqueous solution ([1]; 1 hour) | pH in aqueous solution ([1]; 6 hours) | pH in aqueous solution ([1]; 24 hours) | pH in aqueous solution ([1]; 48 hours) | pH in aqueous solution ([1]; 72 hours) | pH in aqueous solution ([1]; fresh) | pH ([1]; 0 minutes) | pH ([1]; 60 minutes) | pH ([1]; 360 minutes) | pH ([1]; 4320 minutes) | pH ([2]; after 2 hours) | pH ([2]; freshly prepared)
O=C1O[C@H]([C@@H](O)CO)C(O)=C1O [Control, ascorbic acid, reference compound] | 2.1 | 2.1 | 2.1 | 2.1 | 2.1 | 2.1 |  |  |  |  |  | 
O=C1OC[C@@H](O)[C@H]1O [D-erythronolactone] | 6.3 | 6.2 | 5.5 | 3.2 | 3.1 | 6.3 |  |  |  |  |  | 
O=C1O[C@@H]([C@H](O)CO)[C@H](O)[C@H]1O [D-galactonolactone] | 5.0 | 3.9 | 3.2 | 2.6 | 2.4 | 5.1 |  |  |  |  |  | 
O=C1O[C@@H]([C@H](O)[C@H](O)CO)[C@@H](O)C1O (stereo partly drawn) [D-glucoheptonolactone] | 5.6 | 3.9 | 3.1 | 2.5 | 2.3 | 5.6 |  |  |  |  |  | 
O=C1O[C@H](CO)[C@@H](O)[C@H](O)[C@H]1O [D-gluconolactone] | 2.0 | 1.9 | 1.9 | 1.9 | 1.8 | 2.1 | 2.1 | 2.0 | 1.9 | 1.8 | 2.5 | 3.6
O=C[C@H](O)[C@H]1OC(=O)[C@@H](O)[C@H]1O [D-glucuronolactone] | 5.7 | 4.8 | 3.4 | 2.6 | 2.3 | 5.7 |  |  |  |  |  | 
O=C1O[C@@H](C(O)CO)[C@H](O)C1O (stereo partly drawn) [D-gulonolactone] | 5.8 | 4.6 | 3.5 | 3.0 | 2.7 | 6.2 |  |  |  |  |  | 
CC1(C)COC(=O)C1O [D-pantolactone] | 6.5 | 6.4 | 5.9 | 5.7 | 5.7 | 6.5 |  |  |  |  |  | 
O=C1O[C@H](CO)[C@@H](O)[C@H]1O [D-ribonolactone] | 6.1 | 5.9 | 3.9 | 2.8 | 2.6 | 6.2 |  |  |  |  |  | 
